System: Plasmodium falciparum
Assay: GSK_TCMDC: Inhibition of Plasmodium falciparum 3D7 in whole erythrocytes, using parasite LDH activity as an index of growth.
Assay type: functional, organism-based
Details: Plasmodium falciparum, 3D7

Compound: Cc1nc2nc(N)nc(N)c2c(C)c1Cc1ccccc1Cl
- XC50: 112 nM

Compound: Cc1cc(Nc2nc(Nc3cccc(Cl)c3)nc3ccccc23)n[nH]1
- XC50: 287 nM

Compound: O=C(NCc1cccc2ccccc12)[C@@H]1CCCN1C(=O)c1ccc(O)c(-c2ccc(Cl)c(Cl)c2)c1
- XC50: 948 nM

Compound: Cc1cccc2nc(-c3ccc(-c4ccc(CNCC5CCCO5)cc4)s3)[nH]c12 (centres undefined)
- XC50: 739 nM

Compound: CCn1c(-c2nonc2N)nc2c(-c3ccc(CO)o3)ncc(OCCCN)c21
- XC50: 1360 nM

Compound: O=C(Nc1cccc(CN2CCCN(Cc3ccc4c(c3)OCO4)CC2)c1)c1ccc(-c2ccccc2)cc1
- XC50: 652 nM

Compound: COc1cc(C)ccc1N1CCN(CCCCNC(=O)c2ccc(NC(=O)c3ccc(Cl)cc3)cc2)CC1
- XC50: 700 nM

Compound: Cc1ccc(CNC(=O)[C@H](Cc2ccccc2)Nc2ccnc(NCC3CCCCC3)n2)cc1
- XC50: 1190 nM

Compound: O=C(CC(c1ccccc1)c1ccccc1O)N1CCOCC1 (centres undefined)
- XC50: 1520 nM

Compound: CC(C)CC(NC(=O)c1cccc(OCCN2CCOCC2)c1)C(=O)NC(/C=N/NC(=O)c1ccccc1)CCc1ccccc1 (centres undefined)
- XC50: 251 nM

Compound: COc1cc(C(=O)N2C(c3nccs3)C(C(=O)N(OC)C(C)c3ccccc3)CC2(CC(C)C)C(=O)OC(C)(C)C)ccc1C(C)(C)C (centres undefined)
- XC50: 1070 nM

Compound: CN1CCCN(Cc2ccc(-c3cccc(NC(=O)c4ccc(F)cc4)c3)cc2)CC1
- XC50: 1090 nM

Compound: NC1CCN(c2nc(NCCCc3ccc(O)cc3)nc(NCc3ccccc3-c3ccc(C(F)(F)F)cc3)n2)CC1
- XC50: 727 nM

Compound: O=C(NCCN1CCCC1)c1ccc(-c2ccc(-c3nc4cc(C(F)(F)F)ccc4[nH]3)s2)cc1
- XC50: 752 nM

Compound: CN(C(=O)Cc1ccc(Cl)cc1)C1CCN(CCCCCNC(=O)/C=C/c2ccc(Cl)c(Cl)c2)CC1
- XC50: 719 nM

Compound: Cc1cc(NCCc2ccccc2)nc(NC(=N)Nc2cccc([N+](=O)[O-])c2)n1
- XC50: 140 nM

Compound: COc1ccc(CNC(=O)c2cnc3c(O)cccc3c2Nc2cccc(NC(=O)c3ccc(Cl)c([N+](=O)[O-])c3)c2)cc1
- XC50: 945 nM

Compound: O=C(Nc1ccc(OC2CCN(Cc3ccc(F)cc3)C2)c(Cl)c1)c1ccco1 (centres undefined)
- XC50: 195 nM

Compound: CN1CCN(CCCN(Cc2cccc(-c3ccc(CNC4CCCC4)cc3)c2)C(=O)CCC2CCCC2)CC1
- XC50: 761 nM

Compound: CCN(CC)CCOC(=O)c1ccc(NC(=O)c2cn(-c3ccccc3)nc2-c2cccs2)cc1
- XC50: 379 nM

Compound: COC(=O)c1cccc(CNCc2cccc(-c3cccc(-c4nc5ccccc5[nH]4)c3)c2)c1
- XC50: 504 nM

Compound: COc1ccc(CCNCCCCCCNCCc2ccc(Cl)c(Cl)c2)cc1OC
- XC50: 926 nM

Compound: Cc1noc(=O)c2ccc(NC(=O)C(O)(CSc3ccccc3)CC(C)C)cc12 (centres undefined)
- XC50: 722 nM

Compound: N#Cc1ccc(N(CCOc2ccc(Cl)cc2)Cc2ccccc2C(F)(F)F)cc1C(F)(F)F
- XC50: 656 nM

Compound: O=c1cc(NCCCNCc2sc(Br)nc2Br)[nH]c2ccccc12
- XC50: 866 nM

Compound: COC(=O)c1ccc(CC(C)NCC(O)c2cccc(C(F)(F)F)c2)c(OC)c1 (centres undefined)
- XC50: 804 nM

Compound: CC[C@H](C)CNC(=O)c1cncc(-c2cccc(CNC3Cc4ccccc4C3)c2)c1
- XC50: 591 nM

Compound: Cc1nc(C)c(CC(=O)Nc2ccc(-c3cccc(-c4nc5cccc(C)c5[nH]4)c3)cc2)s1
- XC50: 596 nM

Compound: COc1ccc2c(O)c(Br)c(C)nc2c1
- XC50: 192 nM

Compound: O=C(Nc1cccc(-c2ccc(NCCCN3CCCC3)nc2)c1)c1ccccc1
- XC50: 865 nM

Compound: COc1ccc2c(N/N=C/c3ccc([N+](=O)[O-])cc3)ccnc2c1
- XC50: 337 nM

Compound: COc1ccc2nccc([C@@H](O)CN3CCC(NCCOc4cc(C(F)(F)F)ccc4F)CC3)c2c1
- XC50: 108 nM

Compound: Nc1nc(N)c2c(ccc3c2ccn3C2CCCCC2)n1
- XC50: 123 nM

Compound: CC1=C(C(=O)OC(C)C)C(c2ccccc2Cl)C2=C(CC(c3ccccc3)CC2=O)N1 (centres undefined)
- XC50: 850 nM

Compound: O=c1cc(NCCCNC2CCOc3c(I)cc(Cl)cc32)[nH]c2ccccc12 (centres undefined)
- XC50: 832 nM

Compound: COc1ccc(NC(=O)CSc2nc(-c3ccccc3Cl)ns2)cc1
- XC50: 1040 nM

Compound: Cc1cccc(-c2ccc3c(c2)CC(NCc2cccc(-n4ccnc4)c2)C3)c1 (centres undefined)
- XC50: 874 nM

Compound: CCCC(C)Nc1nc(C)cc(N[C@@H](Cc2ccccc2)C(=O)Nc2ccccc2)n1 (some centres undefined)
- XC50: 863 nM

Compound: NC(=O)c1cccc(C(=O)Nc2ccc(-c3cccc(-c4nc5cc(C(F)(F)F)ccc5[nH]4)c3)cc2)c1
- XC50: 350 nM

Compound: O=C(NCc1ccc(Cl)c(Cl)c1)c1cc(CNC2CCNCC2)ccc1O
- XC50: 859 nM

Compound: COc1ccc(Cc2c(Cl)nc3nc(N)nc(N)c3c2C)cc1
- XC50: 1090 nM

Compound: O=C(Nc1cccc(-c2ccc(-c3nc4ccccc4[nH]3)cc2)c1)c1ccncc1
- XC50: 529 nM

Compound: Cc1c(S(=O)(=O)Nc2ccc3ccn(CCN(C)C)c3c2)sc2ccc(Cl)cc12
- XC50: 921 nM

Compound: COc1ccc2c(=NN=Cc3ccccc3F)cc(C)[nH]c2c1
- XC50: 997 nM

Compound: CC(C)C[C@H]1c2[nH]c3ccc(Cl)cc3c2CCN1C(=O)CCc1ccccc1
- XC50: 885 nM

Compound: Cc1cnc(NCC2CCCCC2)nc1NCC(=O)Nc1ccccc1
- XC50: 714 nM

Compound: CC(=O)Nc1ccc(CN2CCC(N(C)c3cc(NC(=O)c4ccc(F)cc4)ccn3)CC2)cc1
- XC50: 1120 nM

Compound: CCOC(=O)Cc1nc(C(=O)OCC)c(N)[nH]1
- XC50: 647 nM

Compound: O=C(/C=C/c1ccc(Cl)cc1)NCCCCCN1CCCN(C(=O)Nc2cccc(Cl)c2)CC1
- XC50: 1000 nM

Compound: CCn1c(Cc2ccccc2)nnc1Sc1ccc([N+](=O)[O-])c(C#N)c1
- XC50: 1010 nM

Compound: CC(CN(C)C)C(=O)Nc1ccc(-c2csc(-c3nc4ccccc4[nH]3)c2)cc1 (centres undefined)
- XC50: 1320 nM

Compound: Cc1c(C)n(C2CCCCC2)c2ncnc(OC3CCN(CC(=O)N4CCCC4)CC3)c12
- XC50: 1450 nM

Compound: CC(C)(C)c1nn(-c2ccccc2)c2[nH]c(=O)c(CNCc3ccc4c(c3)OCO4)cc12
- XC50: 1050 nM

Compound: CCCCc1ccc(NC(=O)Nc2cccc(CCNCc3ccccc3)c2)cc1
- XC50: 881 nM

Compound: COc1ccc(C(=O)NC2CCN(c3ccnc4cc(Cl)ccc34)C2)cc1 (centres undefined)
- XC50: 231 nM

Compound: CCCCNC(=O)c1cc(CNC2CCCCC2)ccc1-c1cccc(CNCc2ccc(-c3ccccc3)cc2)c1
- XC50: 531 nM

Compound: Oc1ccc(Nc2nc(NCc3ccco3)c3ccccc3n2)cc1
- XC50: 674 nM

Compound: NC1=NC2(CCCCC2)N(Cc2ccc(Cl)c(Cl)c2)C(N)=N1
- XC50: 623 nM

Compound: CCc1c(C)nc(-n2nc(C)cc2NC(=O)C2c3ccccc3Oc3ccccc32)[nH]c1=O
- XC50: 952 nM

Compound: CN(C)c1cccc(CN2CC=C(c3c[nH]c4ccc(Cl)cc34)CC2)c1
- XC50: 663 nM

Compound: Cc1ccc(Nc2nc(C)cc(Nc3cccc(NS(C)(=O)=O)c3)n2)cc1
- XC50: 917 nM

Compound: COCCNCc1ccc(-c2ccccc2CNC2CCN(Cc3ccccc3)CC2)cc1
- XC50: 975 nM

Compound: COc1ccc2nccc([C@@H](O)CN3CCC(NCc4cc5cccc(O)c5c(=O)[nH]4)CC3)c2c1
- XC50: 385 nM

Compound: CC[C@H]1CN2CC[C@@H]1C[C@H]2[C@H](O)c1cc(N2CCC(O)CC2)nc2ccc(OC)cc12
- XC50: 166 nM

Compound: CC(C)Nc1cc(C(=O)N[C@@H](Cc2ccccc2)[C@H](O)CNC2CCOCC2)c(F)c(N2CCCCS2(=O)=O)c1
- XC50: 183 nM

Compound: COc1cc(NC(=O)/C=C/c2cc(F)cc(F)c2F)cc(OCCN2CCN(CCN3CCOCC3)CC2)c1
- XC50: 771 nM

Compound: CN(C)CCNCc1ccc(-c2ccc3c(Nc4ccc(Oc5ccccc5)cc4)ccnc3c2)o1
- XC50: 280 nM

Compound: Cc1ccc(Cn2cnc3cc(C(=O)Nc4ccc(-c5cccc(CN(C)C)c5)cc4)ccc3c2=O)o1
- XC50: 625 nM

Compound: Cc1nc2ccccc2n1C1CC2CCC(C1)N2CCCC1(c2ccccc2)CCN(C(=O)OCc2ccccc2)CC1 (centres undefined)
- XC50: 998 nM

Compound: CCC(C)C(COC(=O)c1cc(OC)c(OC)c(OC)c1)N(C)CCN(C)C(COC(=O)c1cc(OC)c(OC)c(OC)c1)C(C)CC (centres undefined)
- XC50: 947 nM

Compound: Cc1nnc(-c2cccc(Nc3ccnc4cc(-c5nccs5)ccc34)c2)o1
- XC50: 632 nM

Compound: O=S(=O)(Nc1cccc(CCN2CCC(N3CCCCC3)CC2)c1)c1ccc(Cl)cc1
- XC50: 916 nM

Compound: CN1CCCC(CN2CCN(Cc3ccc(-c4ccc(-c5nc6ccccc6[nH]5)s4)cc3)CC2)C1 (centres undefined)
- XC50: 133 nM

Compound: CCOc1ccc(Nc2cc(C)nc(Nc3ccc(OCC)cc3)n2)cc1
- XC50: 869 nM

Compound: CN1CCC(NCc2ccc(-c3cccc(S(=O)(=O)NCC4CCCO4)c3)cc2)CC1 (centres undefined)
- XC50: 939 nM

Compound: O=C(Cc1ccc(NC(=O)c2ccc(O)c(-c3ccc(Cl)c(Cl)c3)c2)cc1)NCc1cccc(C(F)(F)F)c1
- XC50: 878 nM

Compound: Cc1cccc(NC(=S)NC2CCN(CCCCCNC(=O)/C=C/c3ccc(Cl)c(Cl)c3)CC2)c1
- XC50: 948 nM

Compound: COc1ccc(C2N=C(N)N=C(N)N2OCc2ccccc2)cc1OC (centres undefined)
- XC50: 133 nM

Compound: CC(=O)Oc1cc(C)ccc1C1CCN(CCCCNC(=O)c2ccc(NC(=O)c3ccc(Cl)cc3)cc2)CC1
- XC50: 721 nM

Compound: CC1CCCC(NCc2c(O)ccc3ccccc23)C1 (centres undefined)
- XC50: 931 nM

Compound: COCCN1CCC(NCC(C)(C)c2nc(-c3ccc(Cl)c(O)c3)c(-c3ccncc3)[nH]2)CC1
- XC50: 717 nM

Compound: O=C(Cc1c[nH]cn1)Nc1cccc(-c2cccc(-c3nc4cc(F)ccc4[nH]3)c2)c1
- XC50: 777 nM

Compound: NC1CCCN(Cc2cccc(-c3ccc(-c4nc5ccccc5[nH]4)cc3)c2)C1 (centres undefined)
- XC50: 722 nM

Compound: COc1ccc(C2CC(c3cccs3)=NN2C(=O)CNc2cccc(C#N)c2)cc1OC (centres undefined)
- XC50: 1450 nM

Compound: CCN1CCC(N2CCC(C(=O)Nc3cccc(-c4cccc(Cl)c4)c3)CC2)CC1
- XC50: 1080 nM

Compound: CCCOc1ccc(CCNCCCCNCCc2ccc(OCCC)c3ccccc23)c2ccccc12
- XC50: 917 nM

Compound: O=C(Nc1cccc(-c2ccc(-c3nc4cc(F)ccc4[nH]3)cc2)c1)c1ccncc1
- XC50: 278 nM

Compound: CN(C)Cc1cc(Nc2ccnc3cc(Cl)ccc23)ccc1O
- XC50: 9.49 nM

Compound: CC(C)CNCc1ccc(-c2cccc(CNC3CCN(Cc4ccccc4)CC3)c2)cc1
- XC50: 239 nM

Compound: O=C(Nc1cccc(CN2CCCN(Cc3ncc[nH]3)CC2)c1)c1ccc2ccccc2c1
- XC50: 632 nM

Compound: CN(C(=O)c1ccccc1)C1c2cc(C#N)ccc2OC(C)(C)C1O (centres undefined)
- XC50: 654 nM

Compound: NC1=NC(c2ccccc2)(c2ccccc2)C(=O)N1C1CCCCC1
- XC50: 661 nM

Compound: Cc1[nH]c(C)c(-c2ccc(OCc3cccc(C(F)(F)F)c3)nc2)c(=O)c1Br
- XC50: 40.3 nM

Compound: O=C(Nc1cccc(Cl)c1)OC1CCCN2CCCCC12 (centres undefined)
- XC50: 1020 nM

Compound: c1ccc2c3c(ccc2c1)Sc1c(ccc2ccccc12)N3
- XC50: 1070 nM

Compound: Cc1noc(C)c1-c1cccc(CNCc2ccc(-c3cccc(-c4nc5cc(C(F)(F)F)ccc5[nH]4)c3)cc2)c1
- XC50: 556 nM

Compound: O=C(c1cc(OC(F)(F)F)ccc1O)N1CCN(c2ccccc2)CC1
- XC50: 1050 nM

Compound: CCCc1cc(Cc2cnc(N)nc2N)cc(CCC)c1OCCCCCC(=O)OCC
- XC50: 51.7 nM

Compound: CN1CCN(Cc2cccc(-c3cc4nccc(Nc5ccc(Oc6ccccc6)cc5)c4cc3Cl)c2)CC1
- XC50: 728 nM
